In US9682995B2, “Amino-substituted isothiazoles” (BAYER PHARMA AKTIENGESELLSCHAFT, priority 2013, dated 2017):

Columns and labels:
Test in all cases: Kinase Profiling (KINOMEscan)
Type in all cases: binding
[1] = target: 456 kinases (of these 395 non-mutant kinases) (Homo sapiens, UniProt P51955); details: NEK2; 10 μM
[2] = target: 456 kinases (of these 395 non-mutant kinases) (Homo sapiens, UniProt P42336, C420R); details: PIK3CA(C420R); 10 μM
[3] = target: 456 kinases (of these 395 non-mutant kinases) (Homo sapiens, UniProt P52333); details: JAK3(JH1domain-catalytic); 10 μM
[4] = target: 456 kinases (of these 395 non-mutant kinases) (Homo sapiens, UniProt Q9UK32); details: 10 μM
[5] = target: 456 kinases (of these 395 non-mutant kinases) (Homo sapiens, UniProt Q04759); details: PRKCQ; 10 μM
[6] = target: 456 kinases (of these 395 non-mutant kinases) (Homo sapiens, UniProt Q15759); details: p38-beta; 10 μM
[7] = target: 456 kinases (of these 395 non-mutant kinases) (Homo sapiens, UniProt Q8WTQ7); details: GRK7; 10 μM
[8] = target: 456 kinases (of these 395 non-mutant kinases) (Homo sapiens, UniProt Q9UPZ9); details: ICK; 10 μM
[9] = target: 456 kinases (of these 395 non-mutant kinases) (Homo sapiens, UniProt Q86Y07); details: VRK2; 10 μM
[10] = target: 456 kinases (of these 395 non-mutant kinases) (Homo sapiens, UniProt Q04771); details: ACVR1; 10 μM
Chain of 456 kinases (of these 395 non-mutant kinases) (Homo sapiens, UniProt Q04771) (Q04771 21-509 limits assumed, change not shown): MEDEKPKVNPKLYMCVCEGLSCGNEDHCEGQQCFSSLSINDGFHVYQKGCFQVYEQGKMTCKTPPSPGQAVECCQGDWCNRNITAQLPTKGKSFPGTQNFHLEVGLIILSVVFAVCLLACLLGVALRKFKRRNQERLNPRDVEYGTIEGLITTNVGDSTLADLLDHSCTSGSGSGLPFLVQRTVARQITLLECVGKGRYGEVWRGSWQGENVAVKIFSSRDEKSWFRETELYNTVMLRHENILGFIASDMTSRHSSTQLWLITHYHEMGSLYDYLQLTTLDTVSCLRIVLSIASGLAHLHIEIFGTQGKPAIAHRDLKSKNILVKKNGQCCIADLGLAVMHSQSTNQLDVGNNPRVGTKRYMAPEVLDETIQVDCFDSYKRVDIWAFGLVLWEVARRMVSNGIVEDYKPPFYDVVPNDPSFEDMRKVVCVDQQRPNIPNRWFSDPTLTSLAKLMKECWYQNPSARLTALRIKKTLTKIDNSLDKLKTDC

[11] = target: 456 kinases (of these 395 non-mutant kinases) (Homo sapiens, UniProt Q56UN5); details: YSK4; 10 μM
[12] = target: 456 kinases (of these 395 non-mutant kinases) (Homo sapiens, UniProt P35916); details: FLT4; 10 μM
Chain of 456 kinases (of these 395 non-mutant kinases) (Homo sapiens, UniProt P35916) (P35916 25-1363 limits assumed, change not shown): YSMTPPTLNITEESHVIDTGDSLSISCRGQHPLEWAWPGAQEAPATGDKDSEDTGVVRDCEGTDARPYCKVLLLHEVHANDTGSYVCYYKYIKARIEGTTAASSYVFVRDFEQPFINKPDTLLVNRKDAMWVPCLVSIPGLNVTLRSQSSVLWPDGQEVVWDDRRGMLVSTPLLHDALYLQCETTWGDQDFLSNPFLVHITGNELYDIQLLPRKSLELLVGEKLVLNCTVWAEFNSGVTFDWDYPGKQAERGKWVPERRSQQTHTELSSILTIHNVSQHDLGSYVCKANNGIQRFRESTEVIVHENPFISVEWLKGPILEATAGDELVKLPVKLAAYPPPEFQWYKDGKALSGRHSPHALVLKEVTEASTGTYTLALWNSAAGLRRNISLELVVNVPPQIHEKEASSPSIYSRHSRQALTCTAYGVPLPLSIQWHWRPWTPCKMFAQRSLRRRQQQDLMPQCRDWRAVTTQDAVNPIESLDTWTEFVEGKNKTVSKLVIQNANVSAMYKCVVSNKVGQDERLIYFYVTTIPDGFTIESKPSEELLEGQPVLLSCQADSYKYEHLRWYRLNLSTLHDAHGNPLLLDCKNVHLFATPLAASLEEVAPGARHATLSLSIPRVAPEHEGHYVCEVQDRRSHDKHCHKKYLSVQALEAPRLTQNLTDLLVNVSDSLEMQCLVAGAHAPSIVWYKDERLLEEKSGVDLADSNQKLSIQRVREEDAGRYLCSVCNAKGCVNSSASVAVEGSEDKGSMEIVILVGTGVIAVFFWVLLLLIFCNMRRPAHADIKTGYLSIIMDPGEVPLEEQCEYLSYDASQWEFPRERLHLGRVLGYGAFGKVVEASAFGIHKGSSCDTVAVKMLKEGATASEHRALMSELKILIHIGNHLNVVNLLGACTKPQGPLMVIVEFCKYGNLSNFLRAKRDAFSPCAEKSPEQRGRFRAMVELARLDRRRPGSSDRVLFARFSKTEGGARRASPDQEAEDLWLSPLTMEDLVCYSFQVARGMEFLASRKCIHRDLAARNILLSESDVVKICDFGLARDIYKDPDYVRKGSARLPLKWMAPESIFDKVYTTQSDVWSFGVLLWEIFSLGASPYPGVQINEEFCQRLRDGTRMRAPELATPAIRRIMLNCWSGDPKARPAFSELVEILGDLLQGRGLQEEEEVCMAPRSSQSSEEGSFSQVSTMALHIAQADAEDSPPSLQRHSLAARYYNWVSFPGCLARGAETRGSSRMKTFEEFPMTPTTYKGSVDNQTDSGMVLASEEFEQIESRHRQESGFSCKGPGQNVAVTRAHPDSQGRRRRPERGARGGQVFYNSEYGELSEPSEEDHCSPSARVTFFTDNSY

[13] = target: 456 kinases (of these 395 non-mutant kinases) (Homo sapiens, UniProt P17612); details: PKAC-alpha; 10 μM
[14] = target: 456 kinases (of these 395 non-mutant kinases) (Homo sapiens, UniProt Q99558); details: NIK; 10 μM
[15] = target: 456 kinases (of these 395 non-mutant kinases) (Homo sapiens, UniProt Q8IW41); details: MAPKAPK5; 10 μM
[16] = target: 456 kinases (of these 395 non-mutant kinases) (Homo sapiens, UniProt P42336, E545K); details: PIK3CA(E545K); 10 μM
[17] = target: 456 kinases (of these 395 non-mutant kinases) (Homo sapiens, UniProt P41240); details: CSK; 10 μM
Chain of 456 kinases (of these 395 non-mutant kinases) (Homo sapiens, UniProt P41240) (P41240 2-450 limits assumed, change not shown): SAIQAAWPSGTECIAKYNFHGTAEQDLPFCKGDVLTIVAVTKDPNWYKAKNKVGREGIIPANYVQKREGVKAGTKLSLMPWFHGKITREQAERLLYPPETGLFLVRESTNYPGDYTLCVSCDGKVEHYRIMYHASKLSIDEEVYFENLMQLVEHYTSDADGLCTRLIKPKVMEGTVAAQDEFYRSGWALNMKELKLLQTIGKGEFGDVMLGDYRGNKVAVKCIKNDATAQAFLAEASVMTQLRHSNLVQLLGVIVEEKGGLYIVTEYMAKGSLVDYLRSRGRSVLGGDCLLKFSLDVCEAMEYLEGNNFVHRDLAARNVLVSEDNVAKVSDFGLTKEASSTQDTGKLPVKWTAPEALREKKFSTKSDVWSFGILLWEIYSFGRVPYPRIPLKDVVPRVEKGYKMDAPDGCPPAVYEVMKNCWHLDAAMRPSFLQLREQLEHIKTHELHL

[18] = target: 456 kinases (of these 395 non-mutant kinases) (Homo sapiens, UniProt P33981); details: TTK; 10 μM
[19] = target: 456 kinases (of these 395 non-mutant kinases) (Homo sapiens, UniProt P00519, Y253F); details: ABL1(Y253F)-phosphorylated; 10 μM
[20] = target: 456 kinases (of these 395 non-mutant kinases) (Homo sapiens, UniProt Q9P2K8, S808G); details: GCN2(Kin.Dom.2,S808G); 10 μM
[21] = target: 456 kinases (of these 395 non-mutant kinases) (Homo sapiens, UniProt Q12851); details: MAP4K2; 10 μM
[22] = target: 456 kinases (of these 395 non-mutant kinases) (Homo sapiens, UniProt Q9Y2H9); details: MAST1; 10 μM
[23] = target: 456 kinases (of these 395 non-mutant kinases) (Homo sapiens, UniProt Q8IWQ3); details: BRSK2; 10 μM
[24] = target: 456 kinases (of these 395 non-mutant kinases) (Homo sapiens, UniProt Q13882); details: BRK; 10 μM
[25] = target: 456 kinases (of these 395 non-mutant kinases) (Homo sapiens, UniProt Q16584); details: MLK3; 10 μM
[26] = target: 456 kinases (of these 395 non-mutant kinases) (Homo sapiens, UniProt O75747); details: PIK3C2G; 10 μM
[27] = target: 456 kinases (of these 395 non-mutant kinases) (Homo sapiens, UniProt Q9UM73); details: ALK; 10 μM
Chain of 456 kinases (of these 395 non-mutant kinases) (Homo sapiens, UniProt Q9UM73) (Q9UM73 19-1620 limits assumed, stated change not applied): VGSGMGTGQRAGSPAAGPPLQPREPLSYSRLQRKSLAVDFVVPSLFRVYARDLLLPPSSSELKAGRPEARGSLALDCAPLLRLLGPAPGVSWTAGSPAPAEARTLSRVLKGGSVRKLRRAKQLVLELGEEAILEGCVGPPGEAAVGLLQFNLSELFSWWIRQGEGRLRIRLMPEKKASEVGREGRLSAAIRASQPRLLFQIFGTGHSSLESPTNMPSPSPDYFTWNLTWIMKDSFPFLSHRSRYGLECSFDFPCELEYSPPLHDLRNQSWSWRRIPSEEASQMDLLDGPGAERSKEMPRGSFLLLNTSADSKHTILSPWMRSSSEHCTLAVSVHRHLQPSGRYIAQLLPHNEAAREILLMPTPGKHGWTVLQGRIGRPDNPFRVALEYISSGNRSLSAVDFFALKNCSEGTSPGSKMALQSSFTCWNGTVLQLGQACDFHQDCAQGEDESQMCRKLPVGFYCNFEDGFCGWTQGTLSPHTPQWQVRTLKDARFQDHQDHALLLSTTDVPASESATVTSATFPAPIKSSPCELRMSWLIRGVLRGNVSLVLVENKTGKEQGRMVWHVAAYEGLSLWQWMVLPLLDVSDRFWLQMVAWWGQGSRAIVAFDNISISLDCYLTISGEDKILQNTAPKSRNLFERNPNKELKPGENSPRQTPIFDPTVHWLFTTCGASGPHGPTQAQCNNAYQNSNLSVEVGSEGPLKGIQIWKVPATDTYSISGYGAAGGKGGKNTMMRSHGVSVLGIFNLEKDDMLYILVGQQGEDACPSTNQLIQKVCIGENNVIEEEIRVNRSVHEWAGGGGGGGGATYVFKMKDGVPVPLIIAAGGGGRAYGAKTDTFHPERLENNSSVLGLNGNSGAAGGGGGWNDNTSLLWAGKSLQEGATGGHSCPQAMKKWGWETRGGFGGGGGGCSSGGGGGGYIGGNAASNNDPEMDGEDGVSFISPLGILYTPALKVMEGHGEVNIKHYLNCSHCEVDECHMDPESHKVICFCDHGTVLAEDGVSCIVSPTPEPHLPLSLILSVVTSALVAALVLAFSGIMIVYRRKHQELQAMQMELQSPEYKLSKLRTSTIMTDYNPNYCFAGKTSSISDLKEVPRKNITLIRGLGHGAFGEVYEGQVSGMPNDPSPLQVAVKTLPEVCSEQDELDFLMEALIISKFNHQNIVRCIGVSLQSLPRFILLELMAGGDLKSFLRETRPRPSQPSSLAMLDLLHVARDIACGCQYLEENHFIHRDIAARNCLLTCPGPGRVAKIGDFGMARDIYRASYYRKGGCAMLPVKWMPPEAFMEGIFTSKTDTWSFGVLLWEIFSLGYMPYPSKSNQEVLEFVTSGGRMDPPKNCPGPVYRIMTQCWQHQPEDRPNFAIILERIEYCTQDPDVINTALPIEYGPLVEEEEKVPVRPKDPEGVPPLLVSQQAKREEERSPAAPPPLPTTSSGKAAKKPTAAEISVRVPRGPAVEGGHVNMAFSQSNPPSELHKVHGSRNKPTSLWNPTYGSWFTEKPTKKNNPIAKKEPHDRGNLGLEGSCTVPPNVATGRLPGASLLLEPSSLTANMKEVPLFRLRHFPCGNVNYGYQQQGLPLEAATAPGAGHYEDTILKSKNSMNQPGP

[28] = target: 456 kinases (of these 395 non-mutant kinases) (Homo sapiens, UniProt P14616); details: INSRR; 10 μM
[29] = target: 456 kinases (of these 395 non-mutant kinases) (Homo sapiens, UniProt O00238); details: BMPR1B; 10 μM
Chain of 456 kinases (of these 395 non-mutant kinases) (Homo sapiens, UniProt O00238) (O00238 14-502 limits assumed, change not shown): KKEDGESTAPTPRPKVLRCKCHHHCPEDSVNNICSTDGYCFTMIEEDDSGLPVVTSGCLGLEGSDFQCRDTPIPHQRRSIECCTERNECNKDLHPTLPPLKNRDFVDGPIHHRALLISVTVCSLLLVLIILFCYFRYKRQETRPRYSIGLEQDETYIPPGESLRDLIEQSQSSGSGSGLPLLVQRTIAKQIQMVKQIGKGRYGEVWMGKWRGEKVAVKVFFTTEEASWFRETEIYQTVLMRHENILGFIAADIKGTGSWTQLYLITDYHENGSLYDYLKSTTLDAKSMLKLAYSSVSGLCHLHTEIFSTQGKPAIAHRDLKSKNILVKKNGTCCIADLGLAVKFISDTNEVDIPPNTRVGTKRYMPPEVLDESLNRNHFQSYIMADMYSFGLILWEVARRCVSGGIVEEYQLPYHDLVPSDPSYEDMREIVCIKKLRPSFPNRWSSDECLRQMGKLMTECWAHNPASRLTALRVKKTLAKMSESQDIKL

[30] = target: 456 kinases (of these 395 non-mutant kinases) (Homo sapiens, UniProt Q14289); details: PYK2; 10 μM
[31] = target: 456 kinases (of these 395 non-mutant kinases) (Homo sapiens, UniProt Q9NWZ3); details: IRAK4; 10 μM
[32] = target: 456 kinases (of these 395 non-mutant kinases) (Homo sapiens, UniProt P00533, G719C); details: EGFR(G719C); 10 μM

## CCc1ccccc1NC(=O)c1c(C)nsc1Nc1cnc2cc(F)ccc2n1 [Example 20, N-(2-Ethylphenyl)-5-[(6-fluoroquinoxalin-2-yl)amino]-3-methyl-1,2-thiazole-4-carboxamide]
[1]
  % Ctrl @ 10 μM: 100 % Ctrl
[2]
  % Ctrl @ 10 μM: 96 % Ctrl
[3]
  % Ctrl @ 10 μM: 82 % Ctrl
[4]; RSK4(Kin.Dom.1-N-terminal)
  % Ctrl @ 10 μM: 100 % Ctrl
[4]; RSK4(Kin.Dom.2-C-terminal)
  % Ctrl @ 10 μM: 75 % Ctrl
[5]
  % Ctrl @ 10 μM: 76 % Ctrl
[6]
  % Ctrl @ 10 μM: 100 % Ctrl
[7]
  % Ctrl @ 10 μM: 94 % Ctrl
[8]
  % Ctrl @ 10 μM: 100 % Ctrl
[9]
  % Ctrl @ 10 μM: 100 % Ctrl
[10]
  % Ctrl @ 10 μM: 77 % Ctrl
[11]
  % Ctrl @ 10 μM: 100 % Ctrl
[12]
  % Ctrl @ 10 μM: 87 % Ctrl
[13]
  % Ctrl @ 10 μM: 91 % Ctrl
[14]
  % Ctrl @ 10 μM: 96 % Ctrl
[15]
  % Ctrl @ 10 μM: 100 % Ctrl
[16]
  % Ctrl @ 10 μM: 84 % Ctrl
[17]
  % Ctrl @ 10 μM: 100 % Ctrl
[18]
  % Ctrl @ 10 μM: 72 % Ctrl
[19]
  % Ctrl @ 10 μM: 100 % Ctrl
[20]
  % Ctrl @ 10 μM: 100 % Ctrl
[21]
  % Ctrl @ 10 μM: 99 % Ctrl
[22]
  % Ctrl @ 10 μM: 67 % Ctrl
[23]
  % Ctrl @ 10 μM: 100 % Ctrl
[24]
  % Ctrl @ 10 μM: 55 % Ctrl
[25]
  % Ctrl @ 10 μM: 90 % Ctrl
[26]
  % Ctrl @ 10 μM: 86 % Ctrl
[27]
  % Ctrl @ 10 μM: 77 % Ctrl
[28]
  % Ctrl @ 10 μM: 76 % Ctrl
[29]
  % Ctrl @ 10 μM: 95 % Ctrl
[30]
  % Ctrl @ 10 μM: 100 % Ctrl
[31]
  % Ctrl @ 10 μM: 100 % Ctrl
[32]
  % Ctrl @ 10 μM: 95 % Ctrl
